A short description of data set [1]: Solubility of dabigatran (descriptive). The data set is classed as physicochemical.
Data set [2] can be described thus: Hygroscopicity of dabigatran (descriptive). Conditions: leads to formation of different hydrated forms. The data set is classed as physicochemical.

Turning to `[H]/N=C(/N)c1ccc(NCc2nc3cc(C(=O)N(CCC(=O)O)c4ccccn4)ccc3n2C)cc1` [dabigatran], the Solubility entry in data set [1] is reported as “sparingly soluble”. In addition, in data set [2], the Hygroscopicity entry was “hygroscopic”.

The values are drawn from patent US9063163B2, “Lyophilised dabigatran” (Boehringer Ingelheim International GmbH, priority 2009, dated 2015).
